Measurements reported in ChEMBL document CHEMBL5291721, “A preclinical secondary pharmacology resource illuminates target-adverse drug reaction associations of marketed drugs” (Nat Commun, 2023).

Tests used:
[1] = target: T1, Muscarinic acetylcholine receptor M2 (Homo sapiens, UniProt P08172)
T1 sequence (P08172 whole entry): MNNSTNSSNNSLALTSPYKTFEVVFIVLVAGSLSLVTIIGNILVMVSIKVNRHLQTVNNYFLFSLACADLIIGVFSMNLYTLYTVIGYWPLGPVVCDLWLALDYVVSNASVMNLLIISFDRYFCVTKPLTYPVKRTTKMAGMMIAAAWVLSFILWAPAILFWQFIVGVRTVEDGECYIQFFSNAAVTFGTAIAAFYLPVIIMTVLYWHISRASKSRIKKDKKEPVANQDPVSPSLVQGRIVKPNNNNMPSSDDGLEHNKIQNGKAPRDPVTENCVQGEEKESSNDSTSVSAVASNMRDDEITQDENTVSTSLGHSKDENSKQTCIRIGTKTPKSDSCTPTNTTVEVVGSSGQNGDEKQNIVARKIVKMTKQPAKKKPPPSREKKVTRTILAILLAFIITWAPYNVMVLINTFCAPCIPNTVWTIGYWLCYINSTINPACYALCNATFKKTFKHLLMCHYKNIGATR

[2] = target: T2, 5-hydroxytryptamine receptor 1A (Homo sapiens, UniProt P08908)
T2 sequence (P08908 whole entry): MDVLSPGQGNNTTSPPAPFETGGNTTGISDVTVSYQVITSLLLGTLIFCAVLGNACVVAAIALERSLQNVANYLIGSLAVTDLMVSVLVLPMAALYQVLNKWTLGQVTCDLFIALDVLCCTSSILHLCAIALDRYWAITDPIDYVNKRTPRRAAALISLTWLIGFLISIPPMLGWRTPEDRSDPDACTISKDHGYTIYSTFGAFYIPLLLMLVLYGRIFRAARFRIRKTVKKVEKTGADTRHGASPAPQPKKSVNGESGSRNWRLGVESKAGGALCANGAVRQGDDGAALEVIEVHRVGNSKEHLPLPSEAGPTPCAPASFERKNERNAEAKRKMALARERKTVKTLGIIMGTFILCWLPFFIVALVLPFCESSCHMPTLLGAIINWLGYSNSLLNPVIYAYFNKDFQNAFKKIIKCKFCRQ

[3] = target: Histamine H3 receptor (Homo sapiens, UniProt Q9Y5N1)
Sequence of Histamine H3 receptor (Q9Y5N1 whole entry): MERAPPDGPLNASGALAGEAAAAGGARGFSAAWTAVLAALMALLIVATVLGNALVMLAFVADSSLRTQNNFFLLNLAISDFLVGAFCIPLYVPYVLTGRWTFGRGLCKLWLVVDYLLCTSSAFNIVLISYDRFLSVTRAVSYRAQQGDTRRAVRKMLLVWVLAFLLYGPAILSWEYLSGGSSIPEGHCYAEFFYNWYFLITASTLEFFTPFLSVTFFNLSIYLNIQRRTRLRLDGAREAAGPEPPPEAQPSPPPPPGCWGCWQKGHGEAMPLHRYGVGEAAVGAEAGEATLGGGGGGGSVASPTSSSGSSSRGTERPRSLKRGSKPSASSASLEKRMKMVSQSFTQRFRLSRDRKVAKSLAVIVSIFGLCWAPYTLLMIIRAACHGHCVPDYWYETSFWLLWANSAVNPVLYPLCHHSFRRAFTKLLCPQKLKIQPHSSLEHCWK

[4] = target: Sodium-dependent noradrenaline transporter (Homo sapiens, UniProt P23975)
Sequence of Sodium-dependent noradrenaline transporter (P23975 whole entry): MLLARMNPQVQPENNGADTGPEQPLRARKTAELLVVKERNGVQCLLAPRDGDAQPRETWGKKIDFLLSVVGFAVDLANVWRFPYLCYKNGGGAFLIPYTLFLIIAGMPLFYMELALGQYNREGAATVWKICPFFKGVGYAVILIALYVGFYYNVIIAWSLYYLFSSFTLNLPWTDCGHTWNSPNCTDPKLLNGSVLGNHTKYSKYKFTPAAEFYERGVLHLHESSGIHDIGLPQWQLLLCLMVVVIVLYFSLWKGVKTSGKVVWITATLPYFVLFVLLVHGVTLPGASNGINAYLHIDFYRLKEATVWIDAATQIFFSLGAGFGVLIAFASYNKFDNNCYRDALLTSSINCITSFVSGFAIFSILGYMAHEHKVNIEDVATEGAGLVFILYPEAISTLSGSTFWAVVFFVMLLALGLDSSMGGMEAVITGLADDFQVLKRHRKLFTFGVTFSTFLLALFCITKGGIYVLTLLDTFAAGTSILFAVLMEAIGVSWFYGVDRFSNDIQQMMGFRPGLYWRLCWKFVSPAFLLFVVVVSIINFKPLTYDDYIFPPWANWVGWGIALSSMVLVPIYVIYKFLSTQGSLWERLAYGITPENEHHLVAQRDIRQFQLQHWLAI

[5] = target: T3, Thromboxane A2 receptor (Homo sapiens, UniProt P21731); type: functional, cell-based
T3 sequence (P21731 whole entry): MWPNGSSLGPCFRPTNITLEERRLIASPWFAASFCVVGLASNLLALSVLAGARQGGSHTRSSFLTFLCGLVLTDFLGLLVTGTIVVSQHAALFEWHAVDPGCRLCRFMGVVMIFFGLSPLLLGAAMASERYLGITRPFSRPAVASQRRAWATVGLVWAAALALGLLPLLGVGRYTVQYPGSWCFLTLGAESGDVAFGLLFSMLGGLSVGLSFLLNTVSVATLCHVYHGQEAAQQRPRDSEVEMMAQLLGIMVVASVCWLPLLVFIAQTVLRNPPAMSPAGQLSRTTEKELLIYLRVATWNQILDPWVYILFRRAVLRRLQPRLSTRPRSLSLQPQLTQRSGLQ

[6] = target: T4, Alpha-2A adrenergic receptor (Homo sapiens, UniProt P08913)
T4 sequence (P08913 whole entry): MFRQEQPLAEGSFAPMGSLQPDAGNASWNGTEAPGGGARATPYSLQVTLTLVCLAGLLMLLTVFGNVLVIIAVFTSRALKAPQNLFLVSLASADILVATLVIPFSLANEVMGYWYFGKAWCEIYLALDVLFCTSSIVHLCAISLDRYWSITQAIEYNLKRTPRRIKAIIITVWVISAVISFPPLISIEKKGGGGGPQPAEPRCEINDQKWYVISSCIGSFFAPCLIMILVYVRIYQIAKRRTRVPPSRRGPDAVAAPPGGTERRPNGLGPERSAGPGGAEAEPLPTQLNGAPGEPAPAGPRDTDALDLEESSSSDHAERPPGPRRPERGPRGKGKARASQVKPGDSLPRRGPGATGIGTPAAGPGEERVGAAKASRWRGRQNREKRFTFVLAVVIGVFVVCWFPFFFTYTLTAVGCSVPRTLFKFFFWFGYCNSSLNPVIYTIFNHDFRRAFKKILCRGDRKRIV

[7] = target: D(1A) dopamine receptor (Homo sapiens, UniProt P21728)
Sequence of D(1A) dopamine receptor (P21728 whole entry): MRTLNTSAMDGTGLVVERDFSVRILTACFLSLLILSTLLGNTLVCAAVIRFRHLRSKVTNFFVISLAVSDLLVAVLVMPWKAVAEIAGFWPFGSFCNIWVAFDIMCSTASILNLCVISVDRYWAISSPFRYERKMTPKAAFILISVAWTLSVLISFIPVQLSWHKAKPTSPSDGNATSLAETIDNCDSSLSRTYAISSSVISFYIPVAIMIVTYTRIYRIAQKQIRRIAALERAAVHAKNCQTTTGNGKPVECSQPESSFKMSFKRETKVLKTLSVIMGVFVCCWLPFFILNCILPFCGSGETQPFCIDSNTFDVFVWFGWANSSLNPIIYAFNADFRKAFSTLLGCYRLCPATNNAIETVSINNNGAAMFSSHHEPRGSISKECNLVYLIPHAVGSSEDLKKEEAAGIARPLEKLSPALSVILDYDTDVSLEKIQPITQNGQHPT

[8] = target: Prostaglandin G/H synthase 1 (Homo sapiens, UniProt P23219); type: functional
Sequence of Prostaglandin G/H synthase 1 (P23219 whole entry): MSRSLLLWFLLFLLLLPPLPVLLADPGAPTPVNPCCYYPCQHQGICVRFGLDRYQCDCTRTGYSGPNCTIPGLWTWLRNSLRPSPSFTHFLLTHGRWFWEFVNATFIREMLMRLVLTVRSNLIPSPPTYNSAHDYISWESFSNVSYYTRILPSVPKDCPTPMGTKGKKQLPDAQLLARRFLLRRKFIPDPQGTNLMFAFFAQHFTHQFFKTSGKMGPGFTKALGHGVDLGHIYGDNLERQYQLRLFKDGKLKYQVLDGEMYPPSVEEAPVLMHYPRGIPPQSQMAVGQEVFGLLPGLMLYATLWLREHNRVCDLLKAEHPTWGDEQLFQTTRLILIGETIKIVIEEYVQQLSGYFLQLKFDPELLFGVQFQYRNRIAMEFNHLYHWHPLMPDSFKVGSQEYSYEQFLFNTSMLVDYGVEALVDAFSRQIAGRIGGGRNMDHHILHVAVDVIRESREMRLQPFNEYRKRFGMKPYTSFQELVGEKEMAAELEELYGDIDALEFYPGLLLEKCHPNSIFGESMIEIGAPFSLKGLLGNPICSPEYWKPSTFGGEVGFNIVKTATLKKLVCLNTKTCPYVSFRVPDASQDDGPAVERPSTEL

[9] = target: D(3) dopamine receptor (Homo sapiens, UniProt P35462)
Sequence of D(3) dopamine receptor (P35462 whole entry): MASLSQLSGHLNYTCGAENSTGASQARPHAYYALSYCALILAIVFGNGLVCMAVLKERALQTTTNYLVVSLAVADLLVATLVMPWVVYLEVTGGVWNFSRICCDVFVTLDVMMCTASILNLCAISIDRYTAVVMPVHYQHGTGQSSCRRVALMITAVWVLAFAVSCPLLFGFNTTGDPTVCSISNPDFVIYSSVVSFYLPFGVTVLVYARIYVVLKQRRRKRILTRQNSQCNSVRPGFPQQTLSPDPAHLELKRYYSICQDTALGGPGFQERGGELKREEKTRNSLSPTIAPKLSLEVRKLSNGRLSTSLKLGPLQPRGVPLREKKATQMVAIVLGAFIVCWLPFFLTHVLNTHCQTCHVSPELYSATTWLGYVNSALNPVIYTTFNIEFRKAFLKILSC

[10] = target: T5, Amine oxidase [flavin-containing] A (Homo sapiens, UniProt P21397); type: functional
T5 sequence (P21397 whole entry): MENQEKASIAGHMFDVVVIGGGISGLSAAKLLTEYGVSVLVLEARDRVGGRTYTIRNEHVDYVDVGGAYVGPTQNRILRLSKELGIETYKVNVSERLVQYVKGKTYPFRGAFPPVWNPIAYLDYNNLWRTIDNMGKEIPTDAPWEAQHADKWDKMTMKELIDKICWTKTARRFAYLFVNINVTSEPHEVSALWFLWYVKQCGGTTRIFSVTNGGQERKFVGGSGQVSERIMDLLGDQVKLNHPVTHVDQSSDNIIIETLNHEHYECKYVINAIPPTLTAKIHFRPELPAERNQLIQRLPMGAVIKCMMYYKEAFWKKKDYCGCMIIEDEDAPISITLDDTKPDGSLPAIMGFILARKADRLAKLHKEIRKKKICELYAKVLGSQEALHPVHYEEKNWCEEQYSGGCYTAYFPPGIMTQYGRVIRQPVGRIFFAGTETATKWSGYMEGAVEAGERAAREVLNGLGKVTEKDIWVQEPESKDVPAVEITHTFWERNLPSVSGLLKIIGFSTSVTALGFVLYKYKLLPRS

[11] = target: Prothrombin (Homo sapiens, UniProt P00734); type: functional
[12] = target: Mu-type opioid receptor (Homo sapiens, UniProt P35372)
Sequence of Mu-type opioid receptor (P35372 whole entry): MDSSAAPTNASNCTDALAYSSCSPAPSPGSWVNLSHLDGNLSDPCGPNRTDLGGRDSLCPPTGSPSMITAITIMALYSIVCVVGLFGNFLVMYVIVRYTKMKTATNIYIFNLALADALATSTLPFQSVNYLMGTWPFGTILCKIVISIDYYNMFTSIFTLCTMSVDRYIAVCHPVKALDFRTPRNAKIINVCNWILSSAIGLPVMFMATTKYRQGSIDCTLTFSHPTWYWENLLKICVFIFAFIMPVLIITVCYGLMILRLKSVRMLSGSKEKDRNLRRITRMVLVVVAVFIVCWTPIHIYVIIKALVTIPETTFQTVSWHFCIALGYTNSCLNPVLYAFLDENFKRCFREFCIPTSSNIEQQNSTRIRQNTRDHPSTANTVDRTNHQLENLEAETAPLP

[13] = target: Acetylcholinesterase (Homo sapiens, UniProt P22303); type: functional
Sequence of Acetylcholinesterase (P22303 whole entry): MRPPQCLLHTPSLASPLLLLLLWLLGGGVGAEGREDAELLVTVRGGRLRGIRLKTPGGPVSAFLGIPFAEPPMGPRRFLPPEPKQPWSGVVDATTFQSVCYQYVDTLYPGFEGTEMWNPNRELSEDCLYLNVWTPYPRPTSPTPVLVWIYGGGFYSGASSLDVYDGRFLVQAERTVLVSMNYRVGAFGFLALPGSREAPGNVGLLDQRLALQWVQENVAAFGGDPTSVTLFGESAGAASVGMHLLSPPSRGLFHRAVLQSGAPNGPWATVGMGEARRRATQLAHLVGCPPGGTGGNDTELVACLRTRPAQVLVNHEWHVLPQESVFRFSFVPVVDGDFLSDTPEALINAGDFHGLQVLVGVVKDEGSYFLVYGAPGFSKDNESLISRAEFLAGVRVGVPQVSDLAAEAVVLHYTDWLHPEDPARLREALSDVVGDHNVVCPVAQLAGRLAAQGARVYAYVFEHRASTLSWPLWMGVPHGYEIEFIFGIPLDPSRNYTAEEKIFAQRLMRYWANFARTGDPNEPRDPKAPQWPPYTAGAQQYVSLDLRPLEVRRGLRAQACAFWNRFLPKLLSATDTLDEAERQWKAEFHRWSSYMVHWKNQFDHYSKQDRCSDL

[14] = target: T3, Thromboxane A2 receptor; type: functional, cell-based; remark: listed apart in the source
Also: assay procedure not described here.

C[C@@H]1C[C@H]2[C@@H]3C[C@H](F)C4=CC(=O)C=C[C@]4(C)[C@@]3(Cl)[C@@H](O)C[C@]2(C)[C@H]1C(=O)COC(=O)C(C)(C)C [CLOCORTOLONE PIVALATE]
AC50 [1]: > 10 µM
AC50 [2]: > 30 µM
AC50 [3]: > 30 µM
AC50 [4]: > 30 µM
AC50 [5]: > 30 µM
AC50 [6]: > 30 µM
AC50 [7]: > 30 µM
AC50 [8]: > 30 µM
AC50 [9]: > 30 µM
AC50 [10]: > 30 µM
AC50 [11]: > 30 µM
AC50 [12]: > 10 µM
AC50 [13]: > 30 µM
AC50 [14]: > 30 µM

C[C@@H](O)[C@H]1C(=O)N2C(C(=O)O)=C([C@H]3CCCO3)S[C@H]12 [FAROPENEM]
AC50 [1]: > 30 µM
AC50 [2]: > 30 µM
AC50 [3]: > 30 µM
AC50 [4]: > 30 µM
AC50 [5]: > 30 µM
AC50 [6]: > 30 µM
AC50 [7]: > 30 µM
AC50 [8]: 14.7 µM
AC50 [9]: > 30 µM
AC50 [10]: > 30 µM
AC50 [11]: > 30 µM
AC50 [12]: > 30 µM
AC50 [13]: > 30 µM
AC50 [14]: > 30 µM

CC(N)CCCC(C)(C)O (stereo not drawn) [HEPTAMINOL]
AC50 [1]: > 30 µM
AC50 [2]: > 30 µM
AC50 [3]: > 30 µM
AC50 [4]: > 30 µM
AC50 [5]: > 30 µM
AC50 [6]: > 30 µM
AC50 [7]: > 30 µM
AC50 [8]: > 30 µM
AC50 [9]: > 30 µM
AC50 [10]: > 30 µM
AC50 [11]: > 30 µM
AC50 [12]: > 30 µM
AC50 [13]: > 30 µM
AC50 [14]: > 30 µM

O=C(Oc1ccccc1C(=O)O)c1ccccc1O [SALSALATE]
AC50 [1]: > 30 µM
AC50 [2]: > 30 µM
AC50 [3]: > 30 µM
AC50 [4]: > 30 µM
AC50 [5]: > 30 µM
AC50 [6]: > 30 µM
AC50 [7]: > 30 µM
AC50 [8]: > 30 µM
AC50 [9]: > 30 µM
AC50 [10]: > 30 µM
AC50 [11]: > 30 µM
AC50 [12]: > 30 µM
AC50 [13]: > 30 µM
AC50 [14]: > 30 µM

CC[C@H]1OC(=O)[C@H](C)[C@@H](O[C@H]2C[C@@](C)(OC)[C@@H](O)[C@H](C)O2)[C@H](C)[C@@H](O[C@@H]2O[C@H](C)C[C@H](N(C)C)[C@H]2O)[C@](C)(OC)C[C@@H](C)C(=O)[C@H](C)[C@@H](O)[C@]1(C)O [CLARITHROMYCIN]
AC50 [1]: > 30 µM
AC50 [2]: > 30 µM
AC50 [3]: > 30 µM
AC50 [4]: > 30 µM
AC50 [5]: > 30 µM
AC50 [6]: > 30 µM
AC50 [7]: > 30 µM
AC50 [8]: > 30 µM
AC50 [9]: > 30 µM
AC50 [10]: > 30 µM
AC50 [11]: > 30 µM
AC50 [12]: > 30 µM
AC50 [13]: > 30 µM
AC50 [14]: > 30 µM

CC[N+](C)(CC)CCOC(=O)C1c2ccccc2Oc2ccccc21 [METHANTHELINE]
AC50 [1]: 0.0126 µM
AC50 [2]: > 30 µM
AC50 [3]: > 30 µM
AC50 [4]: > 30 µM
AC50 [5]: > 30 µM
AC50 [6]: > 30 µM
AC50 [7]: > 30 µM
AC50 [8]: > 30 µM
AC50 [9]: > 30 µM
AC50 [10]: > 30 µM
AC50 [11]: > 30 µM
AC50 [12]: > 30 µM
AC50 [13]: > 30 µM
AC50 [14]: > 30 µM

c1ccc2[nH]c(-c3cscn3)nc2c1 [THIABENDAZOLE]
AC50 [1]: > 30 µM
AC50 [2]: > 30 µM
AC50 [3]: > 30 µM
AC50 [4]: > 30 µM
AC50 [5]: > 30 µM
AC50 [6]: > 30 µM
AC50 [7]: > 30 µM
AC50 [8]: > 30 µM
AC50 [9]: > 30 µM
AC50 [10]: > 30 µM
AC50 [11]: > 30 µM
AC50 [12]: > 30 µM
AC50 [13]: > 30 µM
AC50 [14]: > 30 µM

CCC[C@@H]1C[C@@H](C(=O)N[C@@H]([C@H]2O[C@H](SC)[C@H](OP(=O)(O)O)[C@@H](O)[C@H]2O)[C@H](C)Cl)N(C)C1 [CLINDAMYCIN PHOSPHATE]
AC50 [1]: > 30 µM
AC50 [2]: > 30 µM
AC50 [3]: > 30 µM
AC50 [4]: > 30 µM
AC50 [5]: > 30 µM
AC50 [6]: > 30 µM
AC50 [7]: > 30 µM
AC50 [8]: > 30 µM
AC50 [9]: > 30 µM
AC50 [10]: > 30 µM
AC50 [11]: > 30 µM
AC50 [12]: > 30 µM
AC50 [13]: > 30 µM
AC50 [14]: > 30 µM

OC(CCCN1CCCCC1)(c1ccccc1)c1ccccc1 [DIPHENIDOL]
AC50 [1]: 0.944 µM
AC50 [2]: 6.87 µM
AC50 [3]: > 30 µM
AC50 [4]: > 30 µM
AC50 [5]: > 30 µM
AC50 [6]: > 30 µM
AC50 [7]: 12.5 µM
AC50 [8]: > 30 µM
AC50 [9]: 2.15 µM
AC50 [10]: > 30 µM
AC50 [11]: > 30 µM
AC50 [12]: 25.2 µM
AC50 [13]: > 30 µM
AC50 [14]: > 30 µM

CCCCCCCC(=O)N[C@H](CN1CCCC1)[C@H](O)c1ccc2c(c1)OCCO2
AC50 [1]: > 30 µM
AC50 [2]: 14.3 µM
AC50 [3]: > 30 µM
AC50 [4]: > 30 µM
AC50 [5]: > 30 µM
AC50 [6]: > 30 µM
AC50 [7]: > 30 µM
AC50 [8]: 26.5 µM
AC50 [9]: > 30 µM
AC50 [10]: > 30 µM
AC50 [11]: > 30 µM
AC50 [12]: 14.1 µM
AC50 [13]: > 30 µM
AC50 [14]: > 30 µM

O=[N+]([O-])O[C@H]1CO[C@H]2[C@@H]1OC[C@H]2O[N+](=O)[O-] [ISOSORBIDE DINITRATE]
AC50 [1]: > 30 µM
AC50 [2]: > 30 µM
AC50 [3]: > 30 µM
AC50 [4]: > 30 µM
AC50 [5]: > 30 µM
AC50 [6]: > 30 µM
AC50 [7]: > 30 µM
AC50 [8]: > 30 µM
AC50 [9]: > 30 µM
AC50 [10]: > 30 µM
AC50 [11]: > 30 µM
AC50 [12]: > 30 µM
AC50 [13]: > 30 µM
AC50 [14]: > 30 µM

CCCCC/C=C\C/C=C\C/C=C\CCCCC(=O)O [GAMOLENIC ACID]
AC50 [1]: > 30 µM
AC50 [2]: > 30 µM
AC50 [3]: > 30 µM
AC50 [4]: > 30 µM
AC50 [5]: > 30 µM
AC50 [6]: > 30 µM
AC50 [7]: > 30 µM
AC50 [8]: 11.6 µM
AC50 [9]: > 30 µM
AC50 [10]: > 30 µM
AC50 [11]: > 30 µM
AC50 [12]: > 30 µM
AC50 [13]: > 30 µM
AC50 [14]: > 30 µM
